# Experimental data as given in patent publication US20180185408A1, “ANTIFUNGAL NYLON-3 POLYMERS AND COMBINATION THERAPY USING THEM TO TREAT FUNGAL INFECTIONS” (priority 2016, published 2018).
# Several values for one entry are separate records, joined by “and”; a condition that tells them apart may be missing. Identical values can stand only once. Like-named read-outs stand apart in the source and are kept apart here.
# Legend:
# [1] = test system: P. carinii; test: Pneumocystis ATP assay (ATP-lite M); type: cell-based, Pneumocystis carinii
# [2] = test system: P. murina; test: Pneumocystis ATP assay (ATP-lite M); type: cell-based, Pneumocystis murina
# [3] = test system: Aspergillus fumigatus; test: Checkerboard microdilution synergy (FIC); type: cell-based; conditions: for MIC: Aspergillus fumigatus; for MIC azole combination: POS in combination with MM:TM
# [4] = test system: Aspergillus spp.; test: microbe, parasite or virus in culture
# [5] = test system: Aspergillus terreus; conditions: A. terreus; RPMI 1640 (0.2% Glucose); 1.00×10^5 cells/mL; 35° C.
# [6] = test system: Rhizopus arrhizus; test: MIC100 against filamentous fungi (CLSI M38-A2); type: cell-based; conditions: for polymer efficacy against filamentous fungi, 100%: Clinical isolate
# [7] = test system: P. marneffei mold; test: MIC by broth microdilution (EUCAST-AST-[…]); type: cell-based; conditions: 1.00×10^5 cells/mL, 35° C.
# [8] = test system: Aspergillus terreus; test: microbe, parasite or virus in culture
# [9] = test system: Aspergillus fumigatus; test: microbe, parasite or virus in culture
# [10] = test system: Paecilomyces variotii; test: MIC100 against filamentous fungi (CLSI M38-A2); type: cell-based
# [11] = test system: B. dermatitidis; test: MIC80 against dimorphic fungi (CLSI M38-A2); type: cell-based; conditions: Blastomyces dermatitidis
# [12] = test system: Fusarium oxysporum; test: MIC100 against filamentous fungi (CLSI M38-A2); type: cell-based; conditions: for polymer efficacy against filamentous fungi, 100%: Clinical isolate; for MIC: Fusarium oxysporum
# [13] = test system: Scedosporium apoiospermum; test: MIC100 against filamentous fungi (CLSI M38-A2); type: cell-based; conditions: for polymer efficacy against filamentous fungi, 100%: Clinical isolate
# [14] = test system: H. capsulatum; test: microbe, parasite or virus in culture; type: cell-based; conditions: Histoplasma capsulatum
# [15] = test system: Scedosporium prolificans; test: MIC100 against filamentous fungi (CLSI M38-A2); type: cell-based
# [16] = test system: Coccidioides spps.; test: microbe, parasite or virus in culture; type: cell-based
# [17] = test system: Aspergillus fumigatus
# [18] = MM:TM with posaconazole, isolate CEA10 (Sensitive), […] 10^5 cells/mL
# [19] = MM:TM with posaconazole, isolate F11628 (Resistance), […] 10^5 cells/mL
# [20] = MM:TM with posaconazole, isolate F16216 (Resistance), […] 10^5 cells/mL
smiles,measurement,setting,value
CC1(C)S[C@@H]2[C@H](NC(=O)[C@H](N)c3ccccc3)C(=O)N2[C@H]1C(=O)O [Ampicillin],P. carinii % reduction in ATP/vehicle control,"[1]; 10 ug/mL, 24 hour",12.28%
same,P. carinii % reduction in ATP/vehicle control,"[1]; 10 ug/mL, 48 hr",0%
same,P. carinii % reduction in ATP/vehicle control,"[1]; 10 ug/mL, 72 hr",2.65%
same,P. murina % reduction in ATP/vehicle control,"[2]; 10 ug/mL, 24 hour",0%
same,P. murina % reduction in ATP/vehicle control,"[2]; 10 ug/mL, 48 hr",0.9%
same,P. murina % reduction in ATP/vehicle control,"[2]; 10 ug/mL, 72 hr",0%
N=C(N)c1ccc(OCCCCCOc2ccc(C(=N)N)cc2)cc1 [Pentamidine],P. carinii % reduction in ATP/vehicle control,"[1]; 1 ug/mL, 24 hour",86.79%
same,P. carinii % reduction in ATP/vehicle control,"[1]; 1 ug/mL, 48 hr",87.62%
same,P. carinii % reduction in ATP/vehicle control,"[1]; 1 ug/mL, 72 hr",95.23%
same,P. murina % reduction in ATP/vehicle control,"[2]; 1 ug/mL, 24 hour",90.80%
same,P. murina % reduction in ATP/vehicle control,"[2]; 1 ug/mL, 48 hr",84.39%
same,P. murina % reduction in ATP/vehicle control,"[2]; 1 ug/mL, 72 hr",91.86%
"CC[C@@H]([C@H](C)O)n1ncn(-c2ccc(N3CCN(c4ccc(OC[C@@H]5CO[C@@](Cn6cncn6)(c6ccc(F)cc6F)C5)cc4)CC3)cc2)c1=O [Posaconazole, posaconazole]",FICazole,"[3]; 08-12-12-13 Cyp51 [TR34/L98H], POS with MM:TM",1.000
same,FICazole,"[3]; 08-31-08-91 Cyp51 [TR34/L98H], POS with MM:TM, listed as POS",0.500 and 0.250
same,FICazole,"[3]; 08-36-03-25 Cyp51 [TR34/L98H], POS with MM:TM, listed as POS",0.500 and 0.474
same,FICazole,"[3]; 12-7505220 Cyp51 [TR34/L98H], POS with MM:TM, listed as POS",0.240 and 0.263
same,FICazole,"[3]; AF293, POS with MM:TM",0.21
same,FICazole,"[3]; AF293, POS with MM:TM, listed as POS",0.25
same,MIC,"[3]; 48 h, CEA10, MM:TM with Posaconazole, single agent, 48 h, read-out: MIC Alone",0.7 µM
same,MIC,"[3]; 48 h, CEA10, POS as single agent, 35° C.",0.75 µg/mL
same,MIC,"[3]; 48 h, F11628, POS as single agent, 35° C.",48 µg/mL and 68.5 µM
same,MIC,"[3]; 48 h, F16216, POS as single agent, 35° C.",2 µg/mL and 2.85 µM
same,MIC,[3]; [18],0.5 µg/mL
same,MIC,[3]; [19],48 µg/mL
same,MIC,[3]; [20],1.75 µg/mL
same,MIC Combined,"[3]; CEA10, MM:TM with Posaconazole in combination, 48 h",0.1 µM
same,MIC azole combination,"[3]; CEA10, 48 h, 35° C., listed as POS",0.13 μg/mL and 0.19 μM
same,FICazole,"[3]; CEA10, POS with MM:TM, listed as POS",0.173 and 0.250 and 0.200
same,FICazole,"[3]; D5 Cyp51 [G54E], POS with MM:TM, listed as POS",0.125 and 0.063
same,FICazole,"[3]; D7 Cyp51 [WT], POS with MM:TM",0.263
same,MIC azole combination,"[3]; F11628, 48 h, 35° C.",0.13 µM
same,FICazole,"[3]; F11628, POS with MM:TM, listed as POS",0.002 and 0.001
same,MIC azole combination,"[3]; F16216, 48 h, 35° C.",2.14 µM
same,FICazole,[3]; [18],0.200
same,FICazole,[3]; [19],0.001
same,FICazole,[3]; [20],0.571
same,increase in efficacy in the presence of MM:TM,[3]; azole-resistant strain F11628,> 600 fold
same,MIC,[4],~1 µM
same,MIC,[5],1.0 µg/mL
same,"polymer efficacy against filamentous fungi, 100%","[6]; R. arrhizus RA1, Nose Tissue",0.5
same,"polymer efficacy against filamentous fungi, 100%","[6]; R. arrhizus RA2, Tissue Upper Extremity",0.5
same,"polymer efficacy against filamentous fungi, 100%","[6]; R. arrhizus RA3, Palate Tissue",0.5
same,MIC,[6]; Rhizopus arrhizus isolate RA1,0.5 µg/mL
same,MIC100,[6]; Rhizopus arrhizus isolate RA2,0.5 µg/mL
same,MIC100,[6]; Rhizopus arrhizus isolate RA3,0.5 µg/mL
same,MIC,[7]; RPMI 1640 (0.2% Glucose),0.5 µg/mL
same,MIC,"[7]; Talaromyces marneffei, RPMI 1640 (2% Glucose), read-out: MIC",0.5 µg/mL
same,MIC,[8],1.4 µM and 1 µg/mL
same,MIC,[8]; 48 h,1 µg/mL and 1.4 µM
same,MIC,"[9]; 48 h, A. fumigatus AF293, visually, 1 × 10^5 cells/mL, 35° C.",2 µg/mL and 2.9 µM
same,MIC,"[9]; 48 h, A. fumigatus CEA10, visually, 1 × 10^5 cells/mL, 35° C.",0.5 µg/mL and 0.7 µM
same,MIC,"[9]; 48 h, A. fumigatus F11628, visually, 1 × 10^5 cells/mL, 35° C.",> 32 µg/mL and > 45.7 µM
same,MIC,"[9]; 48 h, A. fumigatus F16216, visually, 1 × 10^5 cells/mL, 35° C.",1.7 µg/mL and 2.5 µM
same,MIC,[9]; A. fumigatus AF293,2.9 µM
same,MIC,"[9]; A. fumigatus AF293, RPMI 1640 (0.2% Glucose), 1.00×10^5 cells/mL, 35° C.",2 µg/mL
same,MIC,"[9]; A. fumigatus AF293, RPMI 1640 (2% Glucose), 1.00×10^5 cells/mL, 35° C.",1 µg/mL
same,MIC,[9]; A. fumigatus CEA10,0.7 µM
same,MIC,"[9]; A. fumigatus CEA10, RPMI 1640 (0.2% Glucose), 1.00×10^5 cells/mL, 35° C.",0.5 µg/mL
same,MIC,"[9]; A. fumigatus CEA10, RPMI 1640 (2% Glucose), 1.00×10^5 cells/mL, 35° C.",0.5 µg/mL
same,MIC,[9]; A. fumigatus F11628,> 45.6 µM
same,MIC,"[9]; A. fumigatus F11628, RPMI 1640 (0.2% Glucose), 1.00×10^5 cells/mL, 35° C.",> 32 µg/mL
same,MIC,"[9]; A. fumigatus F11628, RPMI 1640 (2% Glucose), 1.00×10^5 cells/mL, 35° C.",> 32 µg/mL
same,MIC,[9]; A. fumigatus F16216,2.5 µM
same,MIC,[9]; azole resistant strain F11628,> 45 µM
same,MIC,[9]; strain F16216,2.5 µM
"C[C@@H](c1ncncc1F)[C@](O)(Cn1cncn1)c1ccc(F)cc1F [VOR, voriconazole]","polymer efficacy against filamentous fungi, 100%","[10]; P. variotii QC, CLSI QC isolate for susceptibility testing",0.125
same,MIC,"[10]; Paecilomyces variotii, read-out: MIC100",0.125 µg/mL
same,MIC80,[11]; Blastomyces dermatitidis isolate BD1,≤ 0.03 µg/mL
same,MIC80,[11]; Blastomyces dermatitidis isolate BD3,0.5 µg/mL
same,"polymer efficacy against filamentous fungi, 100%","[12]; F. oxysporum FO1, Blood",4
same,"polymer efficacy against filamentous fungi, 100%","[12]; F. oxysporum FO2, Bone",4
same,"polymer efficacy against filamentous fungi, 100%","[12]; F. oxysporum FO3, Blood",>16
same,MIC,[12]; Fusarium oxysporum isolate FO1,4 µg/mL
same,MIC,[12]; Fusarium oxysporum isolate FO2,4 µg/mL
same,MIC,[12]; Fusarium oxysporum isolate FO3,> 16 µg/mL
same,"polymer efficacy against filamentous fungi, 100%","[13]; S. apiopsermum SA1, Toe",1
same,"polymer efficacy against filamentous fungi, 100%","[13]; S. apiopsermum SA2, Elbow Tissue",1
same,MIC,[13]; Scedosporium apiopsermum isolate SA1,1 µg/mL
same,MIC100,[13]; Scedosporium apiopsermum isolate SA2,1 µg/mL
same,MIC80,[14]; Histoplasma capsulatum isolate HC1,≤ 0.03 µg/mL
same,MIC80,[14]; Histoplasma capsulatum isolate HC2,0.25 µg/mL
same,MIC80,[14]; Histoplasma capsulatum isolate HC3,0.125 µg/mL
same,MIC80,[14]; Histoplasma capsulatum isolate HC4,0.06 µg/mL
same,MIC80,[14]; Histoplasma capsulatum isolate HC5,0.25 µg/mL
same,MIC80,[14]; Histoplasma capsulatum isolate HC6,0.125 µg/mL
same,MIC80,[14]; Histoplasma capsulatum isolate HC7,0.5 µg/mL
same,MIC80,[14]; Histoplasma capsulatum isolate HC8,0.25 µg/mL
same,MIC80,[14]; Histoplasma capsulatum isolate HC9,0.06 µg/mL
same,MIC80,[14]; Histoplasma capsulatum isolate HC10,0.06 µg/mL
same,"polymer efficacy against filamentous fungi, 100%","[15]; L. prolificans LP1, Chest Wound, Clinical isolate",>16
same,MIC,"[15]; Lomentospora prolificans, S. prolificans",> 16 µg/mL
same,MIC100,[15]; Scedosporium prolificans isolate LP1,>16 µg/mL
same,MIC80,[16]; Coccidioides sp. isolate Cocci 1,0.25 µg/mL
same,MIC80,[16]; Coccidioides sp. isolate Cocci 2,0.125 µg/mL
same,MIC80,[16]; Coccidioides sp. isolate Cocci 3,0.06 µg/mL
same,MIC80,[16]; Coccidioides sp. isolate Cocci 5,0.125 µg/mL
same,MIC80,[16]; Coccidioides sp. isolate Cocci 6,0.25 µg/mL
same,MIC80,[16]; Coccidioides sp. isolate Cocci 7,0.125 µg/mL
same,MIC80,[16]; Coccidioides sp. isolate Cocci 8,0.125 µg/mL
same,MIC80,[16]; Coccidioides sp. isolate Cocci 9,1 µg/mL
same,MIC80,[16]; Coccidioides sp. isolate Cocci 10,0.06 µg/mL
same,"polymer efficacy against filamentous fungi, 100%","[17]; A. fumigatus AF1, AF293, Lung",1
same,"polymer efficacy against filamentous fungi, 100%","[17]; A. fumigatus AF2, Clinical isolate, Azole resistant",1
same,"polymer efficacy against filamentous fungi, 100%","[17]; A. fumigatus AF3, Clinical isolate, Azole susceptible",0.25
